What was measured:
[1] = test system: oral carcinoma (KB) cells; experiment: MTT antiproliferative assay, KB; format: cell-based, human; conditions: Homo sapiens, KB, 24 h of drug exposure, mean±SD of 3 experiments
Method: (§1) In vitro antiproliferative activity against three human tumor cell lines, including gastric adenocarcinoma (SGC-7901), oral carcinoma (KB) and fibrosarcoma (HT-1080), was evaluated using the MTT assay with cis-platinum (Cpt) as the positive control.
(§2) The antiproliferative activity of the synthetic compounds was measured by 3-(4, 5- dimethylthiazol-2-yl)-2, 5-diphenyltetrazolium bromide (MTT) assay. Cells were seeded in 96-well plates (Corning, NY, USA) at a density of 8×10^3 per well. After 24 h of incubation, cells were treated with different concentrations (0.1, 0.3, 1, 3 and 10 μg/ml) of the EM-A dimers for the indicated time periods. Afterwards, MTT (Sigma, St. Louis, MO) solution [5.0 mg/ml in phosphate-buffered saline (PBS)] was added (20 μl/well) and incubated for another 4 h at 37°C. The purple formazan crystals were then dissolved in 100 μl dimethyl sulfoxide (DMSO). After 5 min, the plates were read on a plate microreader (TECANSPECTRA, Wetzlar, Germanay) at 490 nm. The IC50 values were obtained using the software of Dose–Effect Analysis with Microcomputers and were defined as concentration of drug causing 50% inhibition in absorbance compared with control cells. Assays were performed in triplicate from three independent experiments.

[2] = test system: fibrosarcoma (HT-1080) cells; experiment: MTT antiproliferative assay, HT-1080; format: cell-based, human; conditions: Homo sapiens, HT-1080, 24 h of drug exposure, mean±SD of 3 experiments
Method: as §1, §2

[3] = test system: gastric adenocarcinoma (SGC-7901) cells; experiment: MTT antiproliferative assay, SGC-7901; format: cell-based, human; conditions: Homo sapiens, SGC-7901, 24 h of drug exposure, mean±SD of 3 experiments
Method: as §1, §2

[4] = test system: normal mouse fibroblast cells (L929); experiment: MTT assay, toxicity against normal fibroblasts L929; format: cell-based; conditions: L929, 24 h of drug exposure
Method: as §2

[5] = test system: Bax, Bcl-2, cyt c, Caspase-3 in MCF-7 cells; experiment: Western blot analysis of apoptotic proteins, MCF-7; format: cell-based, human; conditions: 24 h
Method: (§3) Bax and Bcl-2 proteins are two key apoptosis regulators of Bcl-2 family that govern mitochondrial outer membrane permeabilization (MOMP). To investigate the effects of 1b on Bax and Bcl-2 expressions and its association with cell apoptosis and proliferation, HeLa and MCF-7 cells were treated with different concentration of 1b for 24h before western blot analysis (Fig 6). […] Treatment with 1b led to Δψm depolarization, MOMP enhancing and pro-apoptotic proteins release.
(§4) Cytochrome complex (cyt c) and Caspase-3 play important roles in the process of cell apoptosis. In our case, the effects of 1b on the expression of cyt c and Caspase-3 were examined by treatment of HeLa and MCF-7 cells with different concentration of 1b. […] Treatment with 1b promoted the translocation of cyt c from the mitochondria to cytoplasm. In addition, the amount of 17 kDa cleaved Caspase-3 increased, accompanying with the reducing of zymogen.
(§5) Cells were seeded in 75 mL culture flask at a density of 8 ×10^5 (MCF-7) or 1.2×10^6 (HeLa) and incubated for 24 h. Thereafter, cells were treated with 0, 0.5, 1.5 or 2.5 μM 1b for 24h and harvested by trypsin into the EP tubes.
(§6) For total protein extraction, the cell pellets were lysed in RIPA buffer (Beyotime) supplemented with PMSF on ice for 30 min. After centrifuging at 12000 g for 10 min at 4°C, the cell suspension was collected as the whole cell protein. Cytoplasmic proteins and mitochondrial proteins were extracted from cells using Cell Mitochondria Isolation Kit according to the instructions of manufacturer. The protein concentrations were quantified with BCA Protein Assay Kit (Beyotime) and a plate reader according to the manufacturer’s protocols.
(§7) For western blot analysis, equal protein lysates were separated by electrophoresis on 12% SDS-PAGE gels, and transferred onto PVDF membranes. After blocking with 5% non-fat milk in PBS for 2.5 h at room temperature, the membranes were incubated with primary antibody overnight at 4°C: Bax (1:2000), Bcl-2 (1:1000), Caspase-3 (1:500), Cytochrome c (1:500), and β-actin (1:3000). Then, the blots were washed three times for 10 min each in Tris-NaCl and incubated with secondary HRP-conjugated goat anti-mouse or anti-rabbit IgGs (1:6000 or 1:5000) for 2.5 h at 37°C. The interest proteins were visualized using ECL, and β-actin served as the internal control.

[6] = test system: MCF-7 cells; experiment: Flow cytometry cell cycle analysis (PI), MCF-7; format: cell-based, human; conditions: MCF-7, 1b 24 h
Method: (§8) To understand the mechanism driving the antiproliferative activity of the prepared compounds, we analyzed using flow cytometry the cell cycles of Hela and MCF-7 treated for 24h with the selected active compound 1b at 0.5, 1.0 and 2.0μM concentrations (Fig 2B). […] The percentage of apoptotic cells depended on the concentration of 1b.
(§9) Cells were dispensed in 25 ml culture bottle at a density of 5 ×10^5 per bottle. After 24 h incubation, they were treated with compound 1b at given concentrations for 24h. The cells were harvested by 0.05% trypsin (Sigma, St. Louis, MO), then collected by centrifugation, washed with PBS, and fixed with 10 ml ice-cold 70% ethanol at 4°C overnight. After washed with PBS, the cells were suspended in 1ml propidium iodide (PI; 50 mg/L; Sigma, St. Louis, MO) solution supplemented with 1 g/L RNase A (Sigma, St. Louis, MO). Finally, the samples were analyzed by FACScan flow cytometer (Becton Dickinson, Franklin, NJ, USA).

[7] = test system: Hela cells; experiment: Flow cytometry cell cycle analysis (PI), Hela; format: cell-based, human; conditions: 1b 24 h
Method: as §8, §9

[8] = test system: Hela cells; experiment: Annexin V-FITC/PI apoptosis analysis, Hela; format: cell-based, human; conditions: 2.5 μM, 24 h (control 4.68%)
Method: (§10) The majority of cells (Hela, 88.44% and MCF-7 89.30%) in the control samples were viable and non-apoptotic. […] In addition, an increase in the Annexin V+PI+ population was also observed which indicates late apoptotic or dead cells.
(§11) Cell apoptosis was determined using AnnexinV-FITC/PI Assay Kit according to the manufacturers’ protocols. Briefly, cells were seeded in 6-well plates at a density of 1.2×10^5 (MCF-7) or 1.5×10^5 (HeLa) per well and incubated for 24 h. Then, cells were treated with 0, 0.5, 1.5 or 2.5 μM 1b for 24h. After washed with PBS twice, cells were re-suspended in 100 μL binding buffer containing 5 μL AnnexinV-FITC and 5 μL PI. Following 10 min of incubation, cells were detected by FACScan flow cytometer.

[9] = test system: Hela cells; experiment: Mitochondrial potential assay (Rhodamine 123), HeLa; format: cell-based, human; conditions: 24 h
Method: Mitochondria play a key role in the process of apoptosis. After treatment with 1b for 24h and stained with Rhodamine 123, the mitochondrial membrane potential (Δψm) changes in HeLa and MCF-7 cells were observed by flow cytometer.
Cells were seeded in 6-well plates at a density of 0.8×10^5 (MCF-7) or 1.0×10^5 (HeLa) per well. After 24 h of incubation, cells were treated with 0, 0.5, 1.5 or 2.5 μM 1b for another 24h. Subsequently, cells were washed with PBS twice, incubated with 1 μg/mL Rhodamine 123 in 1 mL PBS at 37°C for 30 min, and analyzed by FACScan flow cytometer.

[10] = test system: Bax, Bcl-2, cyt c, Caspase-3 in HeLa cells; experiment: Western blot analysis of apoptotic proteins, HeLa; format: cell-based, human; conditions: 24 h
Method: as §3, §4, §5, §6, §7

[11] = test system: MCF-7 cells; experiment: Annexin V-FITC/PI apoptosis analysis, MCF-7; format: cell-based, human; conditions: MCF-7, 2.5 μM, 24 h (control 3.28%)
Method: as §10, §11

[12] = MCF-7, 0.5, 1.5, 2.5 μM, vs control, dose-dependent, P<0.01
[13] = HeLa, 0.5, 1.5, 2.5 μM, vs control, dose-dependent, P<0.01

IC50 [1] [µM] | IC50 [2] [µM] | IC50 [3] [µM] | Structure (SMILES) | IC50 [4] [µM] | BCL-2 expression [5, 12] | Bax expression [5, 12] | amount of 17 kDa cleaved Caspase-3 ([5]; MCF-7, 0.5 to 2.5 μM) | expression of cyt c in the cytoplasm ([5]; MCF-7, concentration increased from 0.5 to 2.5 μM) | percentage of SubG1 peaks ([6]; highest concentration (control 3.62%)) [%] | percentage of G0/G1 peaks ([6]; highest concentration (control 61%)) [%] | percentage of SubG1 peaks ([7]; highest concentration (control 2.28%)) [%] | percentage of G0/G1 peaks ([7]; highest concentration (control 55%)) [%] | early apoptotic cell population (lower right) [8] [%] | mitochondrial membrane potential (Rhodamine 123) ([9]; 0.5 μM) [%] | mitochondrial membrane potential (Rhodamine 123) ([9]; 2.5 μM) [%] | BCL-2 expression [10, 13] | Bax expression [10, 13] | amount of 17 kDa cleaved Caspase-3 ([10]; HeLa, 0.5 to 2.5 μM) | expression of cyt c in the cytoplasm ([10]; HeLa, concentration increased from 0.5 to 2.5 μM) | early apoptotic cell population (lower right) [11] [%]
> 100 | > 100 | > 100 | CC[C@H]1OC(=O)[C@H](C)[C@@H](O[C@H]2C[C@@](C)(OC)[C@@H](O)[C@H](C)O2)[C@H](C)[C@@H](O[C@@H]2O[C@H](C)C[C@H](N(C)C)[C@H]2O)[C@](C)(OC)C[C@@H](C)C(=O)[C@H](C)[C@@H](O)[C@]1(C)O [clarithromycin, reference compound] | > 100 | – | – | – | – | – | – | – | – | – | – | – | – | – | – | – | –
– | – | – | CCC1OC(=O)C(C)C(OC2CC(C)(OC)C(O)C(C)O2)C(C)C(OC2OC(C)CC(N(C)CC=CCN(C)C3CC(C)OC(OC4C(C)C(OC5CC(C)(OC)C(O)C(C)O5)C(C)C(=O)OC(CC)C(C)(O)C(O)C(C)C(=O)C(C)CC4(C)OC)C3O)C2O)C(C)(OC)CC(C)C(=O)C(C)C(O)C1(C)O (centres unmarked) [Compound 1b] | – | decreased | significantly increased | increased | increased | 22.51 | 45 | 20.06 | 35 | 30.30 | 74.17 | 1.00 | decreased | significantly increased | increased | increased | 54.84
